Results from paper PMC5543150, “Antimalarial troponoids, puberulic acid and viticolins; divergent synthesis and structure-activity relationship studies” (Scientific Reports, 2017).
Converted amounts (≈) assume the structure as drawn. Read-outs that look alike come from different tables or passages of the source.

What was measured:
[1] = system: human fetal lung fibroblast MRC-5 cells; parameters: method as in earlier work; conditions: Table S1; natural products and simple troponoids, previously reported; cited from earlier work
[2] = Cytotoxic assay against MRC-5 cells; conditions: human
Description: Measurement of cytotoxicity against human fetal lung fibroblast MRC-5 cells was carried out as described previously.
3. […]
(§1) 3-2. Cytotoxic assay against MRC-5 cells
Measurement of cytotoxicity against human fetal lung fibroblast MRC-5 cells
was carried out as described previously4). […]
4) K. Otoguro, H. Ui, A. Ishiyama, N. Arai, M. Kobayashi, Y. Takahashi, R. Masuma,
K. Shiomi, H. Yamada, S. Ōmura, J. Antibiot.

P. berghei = system: P. berghei; parameters: method as in PMID 21063422, PMID 24713875; conditions: 2 mg/kg × 4, subcutaneous (s.c.), 4-day suppressive test; cited from earlier work
[3] = parameters: method as in PMID 21063422, PMID 24713875; conditions: s.c. dose of 5 mg/kg × 2 (day 0 and 1), by day 3; cited from earlier work
[4] = system: Plasmodium falciparum K1 (chloroquine-resistant) parasite strain; experiment: In vitro antimalarial assay (p-LDH, 72 h) against Plasmodium falciparum K1 strain; type: cell-based; conditions: for IC50: Plasmodium falciparum; for fold better IC50 than those of 7 and 37: relative to 7 and 37
Description: Briefly, the P. falciparum K1 strain was cultured in human erythrocytes in RPMI medium supplemented with 10% human plasma at 37 °C, under 93% N2, 4% CO2, and 3% O2. Asynchronous parasites (2% hematocrit and 0.5 or 1% parasitaemia) were seeded in a 96-well microtiter plate and serially diluted test compounds were added. […] After 72-hours incubation, parasite lactate dehydrogenase (p-LDH) was assayed using a slight modification of the procedure reported by Makler et al.[31] and Vivas et al.[32]. The 50% inhibitory concentration (IC50) value was calculated from a dose response curve. This study was approved by “Kitasato Institute Hospital Research Ethics Committee (No12102)” using human erythrocytes donated by volunteers.
3. Biological evaluation of synthesized derivatives
3-1. In vitro cultivation of Plasmodium falciparum and the antimalarial assay In vitro cultivation and antimalarial activity against the Plasmodium falciparum […]
previously1). Briefly, the P. falciparum K1 strain was cultured in human erythrocytes in RPMI medium supplemented with 10% human plasma at 37 °C, under 93% N2, 4% CO2, and 3% O2. Asynchronous parasites (2% hematocrit and 0.5 or 1% parasitaemia) were seeded in a 96-well microtiter plate and serially diluted test compounds were added.
After 72-hours incubation, parasite lactate dehydrogenase (p-LDH) was assayed using a slight modification of the procedure reported by Makler et al2) and Vivas et al3). The 50% inhibitory concentration (IC50) value was calculated from a dose response curve.
This study was approved by “Kitasato Institute Hospital Research Ethics Committee (No12102)” using human erythrocytes donated by volunteers.
as §1
Measurement of cytotoxicity against human fetal lung fibroblast MRC-5 cells was carried out as described previously4).
1) K. Otoguro, A. Kohana, C. Manabe, A. Ishiyama, H. Ui, K. Shiomi, H. Yamada, S. […]
2) M. T. Makler, J. M. Ries, J. A. Williams, J. E. Bancroft, R. C. Piper, B. L. Gibbins, […]
D. J. Hinrichs, Am. J. Med. Hyg. 1993, 48, 739-741.
3) L. Vivas, A. Easton, H. Kendrick, A. Cameron, J.-L. Lavandera, D. Barros, F. G. de las Heras, R. L. Brady, S. L. Croft, Exper. Parasitol. 2005, 111, 105-114.
4) K. Otoguro, H. Ui, A. Ishiyama, N. Arai, M. Kobayashi, Y. Takahashi, R. Masuma, K. Shiomi, H. Yamada, S. Ōmura, J. Antibiot. 2003, 56, 322-324.

[5] = system: Plasmodium falciparum K1 (chloroquine-resistant) parasite strain; conditions: natural products and simple troponoids, previously reported, cited from earlier work; for IC50 Antimalarial activity (K1 strain) / Selectivity index MRC-5/K1: Table S1; for IC50: read-out: IC50, antimalarial activity against Plasmodium falciparum K1 strain
[6] = MRC-5 cells (fetal lung fibroblasts), IC50 Cytotoxicity (MRC-5), Table S1, synthesized compounds and positive controls
[7] = MRC-5 cells (fetal lung fibroblasts), IC50 Cytotoxicity (MRC-5), synthesized derivatives
[8] = K1, Table S1, synthesized compounds and positive controls, read-out: IC50 Antimalarial activity (K1 strain)
[9] = K1, synthesized derivatives, in vitro, read-out: IC50 Antimalarial activity (K1 strain)
[10] = Table S1, synthesized compounds and positive controls
[11] = MRC-5 cells (fetal lung fibroblasts), IC50 cytotoxicity (MRC-5)

Row | SMILES | IC50 [2, 6] [µg/mL] | IC50 [2, 7] [nM] | IC50 [4, 8] [µg/mL] | IC50 [4, 9] [nM] | Selectivity index MRC-5/K1 [4, 10] | IC50 Antimalarial activity (K1 strain) [5] [µg/mL] | IC50 [5] [nM] | further results
1 | O=C(O)c1cc(O)c(O)c(=O)c(O)c1 [Compound 1, puberulic acid] | 4.18 | 289000 | 0.0087 | 44 ± 2.9 | 480.46 | 0.01 (≈ 0.0505 µM) | 50 | IC50 Cytotoxicity (MRC-5) [1]: 57.20 µg/mL (≈ 289 µM); in vivo efficacy, inhibition (P. berghei): 69%; toxicity in vivo, mice dying [3]: four out of five; Selectivity index MRC-5/K1 [5]: 5720
2 | O=C(O)c1cc(O)cc(=O)c(O)c1 [Compound 2, stipitatic acid] | – | – | – | – | – | 7.07 (≈ 38.8 µM) | – | IC50 Cytotoxicity (MRC-5) [1]: > 100 µg/mL; Selectivity index MRC-5/K1 [5]: > 14
3 | COc1c(O)cc(C(=O)O)cc(O)c1=O [Compound 3, viticolin A] | – | – | – | – | – | 9.92 (≈ 46.8 µM) | 46800 | IC50 Cytotoxicity (MRC-5) [1]: > 100 µg/mL; melting point: 227 °C; Selectivity index MRC-5/K1 [5]: > 10
4 | COc1cc(C(=O)O)cc(O)c(OC)c1=O [Compound 4, viticolin B] | – | – | – | – | – | 0.84 (≈ 3.71 µM) | 3710 | IC50 Cytotoxicity (MRC-5) [1]: 6.79 µg/mL (≈ 30 µM); Selectivity index MRC-5/K1 [5]: 8.08
5 | O=c1cccccc1 [Compound 5, tropone, reference compound] | – | – | – | – | – | > 12.50 | > 118000 | –
6 | O=c1cccccc1O [Compound 6, tropolone, reference compound] | – | – | – | – | – | 2.74 (≈ 22.4 µM) | 22400 | –
7 | O=c1c(O)ccccc1O [Compound 7, 7-hydroxytropolone, reference compound] | – | – | – | – | – | 0.89 (≈ 6.44 µM) | 6440 | IC50 Cytotoxicity (MRC-5) [1]: 0.24 µg/mL (≈ 1.74 µM); fold stronger IC50 value than that of 5 ([4]; K1 strain, relative to tropone (5)): > 18 fold; Selectivity index MRC-5/K1 [5]: 0.27
8 | CC(C)c1cccc(=O)c(O)c1 [Compound 8, hinokitiol, reference compound] | – | – | – | – | – | 4.92 (≈ 30 µM) | 30000 | IC50 Cytotoxicity (MRC-5) [1]: 5.80 µg/mL (≈ 35.3 µM); Selectivity index MRC-5/K1 [5]: 1.20
9 | CC1(C)Oc2cc(C=O)cc(O)c(=O)c2O1 [Compound 23] | – | – | > 12.5 | > 56000 | – | – | – | –
10 | CC1(C)Oc2cc(C(=O)O)cc(O)c(=O)c2O1 [Compound 24] | – | – | > 12.5 | > 50000 | – | – | – | –
11 | COC(=O)c1cc2c(c(OC)c(=O)c1)OC(C)(C)O2 [Compound 25] | – | – | > 12.5 | > 47000 | – | – | – | –
12 | COC(=O)c1cc2c(c(=O)c(OC)c1)OC(C)(C)O2 [Compound 26] | – | – | > 12.5 | > 47000 | – | – | – | –
13 | COc1c2c(cc(C(=O)O)cc1=O)OC(C)(C)O2 [Compound 27] | – | – | > 12.5 | > 50000 | – | – | – | –
14 | COc1cc(C(=O)O)cc2c(c1=O)OC(C)(C)O2 [Compound 28] | – | – | > 12.5 | > 50000 | – | – | – | –
15 | COc1cc(C(=O)O)cc(O)c(=O)c1O [Compound 29, Iso-viticolin A] | 11.8 | 55800 | 0.073 | 340 ± 22 | 162.33 | – | – | fold stronger activity than viticolin A (3) ([4]; K1 strain, relative to viticolin A (3)): approximately 100 fold
16 | O=c1c(O)ccc(CO)cc1O [Compound 37, 4-Hydroxymethyl-7-hydroxytropolone] | 0.00057 | 3.4 | 0.728 | 4330 ± 30 | 0.0008 | – | – | IC50 [2, 11]: 3.39 nM; melting point: 144 °C (dec.)
17 | COCc1ccc(O)c(=O)c(O)c1 [Compound 38, 4-Methoxymethyl-7-hydroxytropolone] | 0.00024 | 1.3 | 0.38 | 2090 ± 27 | 0.0006 | – | – | IC50 [2, 11]: 1.32 nM; fold better IC50 than those of 7 and 37 ([4]; K1 strain): approximately 2 fold
18 | O=C(O)c1ccc(O)c(=O)c(O)c1 [Compound 40, Iso-stipitatic acid] | 18.6 | 102000 | 0.387 | 2120 ± 110 | 47.82 | – | – | fold better IC50 than those of 7 and 37 ([4]; K1 strain): approximately 2 fold
19 | O=c1c(O)cc(CO)cc(O)c1O [Compound 42, 4-Hydroxymethyl-6,7-dihydroxytropolone] | 0.00435 | 24 | 0.038 | 210 ± 3.3 | 0.115 | – | – | melting point: 162 °C
20 | COCc1cc(O)c(O)c(=O)c(O)c1 [Compound 43, 4-Methoxymethyl-6,7-dihydroxytropolone] | 0.00181 | 91 | 0.044 | 220 ± 1.6 | 0.041 | – | – | melting point: 120 °C
21 | [N-]=[N+]=NCc1cc(O)c(O)c(=O)c(O)c1 [Compound 44, 4-Azidomethyl-6,7-dihydroxytropolone] | 0.00073 | 3.5 | 0.096 | 460 ± 53 | – | – | – | –
22 | C[C@@H]1CC[C@H]2[C@@H](C)C(=O)O[C@@H]3O[C@@]4(C)CC[C@@H]1[C@]32OO4 [artemisinin, reference compound] | – | – | 0.0057 | – | 7.925 | – | – | IC50 ([2]; IC50 Cytotoxicity (MRC-5)): 45.2 µg/mL
23 | CCN(CC)CCCC(C)Nc1ccnc2cc(Cl)ccc12 (centres unmarked) [chloroquine, reference compound] | – | – | – | – | – | – | – | IC50 [2]: 18.6 µg/mL; IC50 ([4]; K1, read-out: IC50 Antimalarial activity (K1 strain)): 0.18 µg/mL
